Results from patent US9572787B2, “Inhibition of renal fibrosis” (Rhode Island Hospital, priority 2011, dated 2017).
Read-outs that look alike come from different tables or passages of the source.

Legend:
[1] = test system: obstructive kidney (UUO); assay: UUO obstructive nephropathy model, single dose of suramin immediately after ureteral ligation; type: in vivo, mouse
Experimental: UUO and Remnant Kidney Models and Suramin Treatment. The UUO model was established in male C57 back mice that weighed 20-25 g (Jackson Laboratory, Bar Harbor, Me.) as described in our previous study. Briefly, the abdominal cavity was exposed via a midline incision and the left ureter was isolated and ligated. The contralateral kidney was used as controls. […] Six mice were used in each group.
(§1) Immunoblot Analysis. Immunoblot analysis of NRK-49F cells and tissue samples were conducted as described previously. The densitometry analysis of immunoblot results was conducted by using NIH Image software (National Institutes of Health, Bethesda, Md.).
Immunofluorescent and Immunohistochemical Staining Immunofluorescent and immunohistochemical staining was performed according to the procedure described in our previous studies. For assessment of renal fibrosis, masson trichrome staining was performed according to the protocol provided by the manufacture (Sigma, St. Louis, Mo.). The collagen tissue area (blue color) was quantitatively measured using Image Pro-Plus software (Media-Cybernetics, Silver Spring, Md., USA) by drawing a line around the perimeter of positive staining area, and the average ratio to each microscopic field (400×) was calculated and graphed.
Quantitative Real-Time PCR. The procedure for quantitative qRT-PCR and the primers used for all measurements have been described previously. Briefly, total RNA from mouse kidney tissue was extracted using RNeasy Kit (QIAGEN, Valencia, Calif.). RNA (1 μg) was reverse transcribed using the AMV First Strand cDNA synthesis kit (Roche Diagnostics Corporation, Indianapolis, Ind.) and random oligodeoxynucleotide primers. Then, real time qRT-PCR amplifications were performed. Relative mRNA abundance was determined from the nanogram ratios of specific mRNA to 18S ribosomal RNA measured in the same samples, and fold change was calculated relative to the group of sham-operated mice with vehicle treatment. Template-free reactions for each pair of primers were also included as controls.

[2] = test system: NRK-49F cells; assay: TGF-β1-induced activation of renal interstitial fibroblasts (immunoblot); type: cell-based, rat; settings: 2 ng/ml TGF-β1, 24 h
Experimental: Cell Culture and Treatments. NRK-49F cells were cultured in Dulbecco's modified eagle's medium (DMEM) (Sigma-Aldrich, St. Louis, Mo.) containing 5% fetal bovine serum (FBS), 0.5% penicillin and streptomycin in an atmosphere of 5% CO2 and 95% air at 37° C. […] For TGF-β1 treatment, NRK-49F were starved for 24 h by incubation with 0.5% FBS containing DMEM and then exposed to TGF-β1 (0.5-2 ng/ml) for 24 h.
as §1

[3] = in the body, cited from earlier work
[4] = test system: remnant kidney; assay: Remnant kidney model (5/6 nephrectomy), suramin treatment; type: in vivo, rat
Source text: The remnant kidney model was created in male Sprague-Dawley rats that weighed 180 to 200 g (Charles River Laboratories, Wilmington, Mass.). 5/6 of normal renal mass was surgically ablated according to our previous protocols. Briefly, 20 animals underwent subtotal nephrectomy involving right subcapsular nephrectomy and infarction of approximately two-thirds of the left kidney by ligation of the posterior and one or two anterior extrarenal branches of the renal artery. In addition, 12 rats underwent a sham operation (laparotomy and manipulation of the renal pedicles). On the second week after surgery, rats were randomly divided into suramin treatment and non-treatment groups. […] 24-hour urine samples were collected in metabolic cages at day 0 and weekly for the determination of urinary levels of protein. Blood was taken weekly for the measurement of serum creatinine. At 28 days after surgery, mean blood pressure was measured, and then all animals were sacrificed and kidneys were collected for further analysis. Assessment of Renal Function and Measurement of Blood Pressure. Urinary protein concentrations were determined by using the colorimetric Lowry assay. Serum creatinine was analyzed using a creatinine kit (Sigma). Mean blood pressure was determined via a catheter inserted into the femoral artery attached to the Transonic Systems pressure transducer (Transonic Systems Inc. Ithaca, N.Y.) in anesthetized rats at the end of experiment. Immunoblot Analysis. Immunoblot analysis of NRK-49F cells and tissue samples were conducted as described previously. The densitometry analysis of immunoblot results was conducted by using NIH Image software (National Institutes of Health, Bethesda, Md.). Immunofluorescent and Immunohistochemical Staining Immunofluorescent and immunohistochemical staining was performed according to the procedure described in our previous studies. For assessment of renal fibrosis, masson trichrome staining was performed according to the protocol provided by the manufacture (Sigma, St. Louis, Mo.). The collagen tissue area (blue color) was quantitatively measured using Image Pro-Plus software (Media-Cybernetics, Silver Spring, Md., USA) by drawing a line around the perimeter of positive staining area, and the average ratio to each microscopic field (400×) was calculated and graphed.

[5] = test system: NRK-49F cells; assay: Cleaved PARP and cleaved caspase-3 (apoptosis hallmarks), immunoblot; type: cell-based, rat; settings: 100 μM suramin, 36 h
Experimental: Cell Culture and Treatments. NRK-49F cells were cultured in Dulbecco's modified eagle's medium (DMEM) (Sigma-Aldrich, St. Louis, Mo.) containing 5% fetal bovine serum (FBS), 0.5% penicillin and streptomycin in an atmosphere of 5% CO2 and 95% air at 37° C. […] Immunoblot Analysis. Immunoblot analysis of NRK-49F cells and tissue samples were conducted as described previously. The densitometry analysis of immunoblot results was conducted by using NIH Image software (National Institutes of Health, Bethesda, Md.).

[6] = 1 mg/kg i.p. single dose, day 7
[7] = 5 mg/kg i.p. single dose, day 7
[8] = 10 mg/kg i.p. single dose, day 7
[9] = 20 mg/kg i.p. single dose, 21 days after UUO injury
[10] = 10 mg/kg once per week for two weeks
[11] = 10 mg/kg once per week for two weeks, from week 2 after surgery

Cc1ccc(C(=O)Nc2ccc(S(=O)(=O)O)c3cc(S(=O)(=O)O)cc(S(=O)(=O)O)c23)cc1NC(=O)c1cccc(NC(=O)Nc2cccc(C(=O)Nc3cc(C(=O)Nc4ccc(S(=O)(=O)O)c5cc(S(=O)(=O)O)cc(S(=O)(=O)O)c45)ccc3C)c2)c1 [Suramin]
fibronectin expression in kidney [1, 6]: slight reduction
α-SMA expression in kidney [1, 6]: slight reduction
fibronectin expression in kidney [1, 7]: further inhibition
α-SMA expression in kidney [1, 7]: further inhibition
collagen 1 expression in kidney ([1]; 5 mg/kg single dose, day 7): observed effect
fibronectin expression in kidney [1, 8]: complete blockade
α-SMA expression in kidney [1, 8]: significant, but incomplete, suppression
collagen 1 expression in kidney ([1]; 10 mg/kg single dose, day 7): greater inhibition
suppression of fibronectin expression in kidney [1, 9]: approximately 50%
suppression of α-SMA expression in kidney [1, 9]: approximately 50%
EGF receptor phosphorylation ([1]; 20 mg/kg single dose, day 7): abolished
ICAM-1 mRNA expression ([1]; 20 mg/kg single dose, day 7): decreased
IL-1β mRNA expression ([1]; 20 mg/kg single dose, day 7): decreased
PDGF receptor phosphorylation ([1]; 20 mg/kg single dose, day 7): abolished
TGF-β1 mRNA expression reduced to (real-time PCR) ([1]; 20 mg/kg single dose, day 7): 45%
TGF-β1 type I receptor mRNA expression ([1]; 20 mg/kg single dose, day 7): suppressed its basal expression
TGF-β type II receptor mRNA expression reduced to (real-time PCR) ([1]; 20 mg/kg single dose, day 7): 94%
TNF-α mRNA expression ([1]; 20 mg/kg single dose, day 7): decreased
UUO injury-induced phosphorylation of Smad2 ([1]; 20 mg/kg single dose, day 7): abolished
UUO injury-induced phosphorylation of Smad3 ([1]; 20 mg/kg single dose, day 7): abolished
collagen 1 expression in kidney ([1]; 20 mg/kg single dose, day 7): reduced its expression to the basal level
expression level of total ERK1/2 ([1]; 20 mg/kg single dose, day 7): did not affect
expression level of total STAT3 ([1]; 20 mg/kg single dose, day 7): did not affect
expression of total EGF receptor ([1]; 20 mg/kg single dose, day 7): did not have an inhibitory effect
expression of total PDGF receptor ([1]; 20 mg/kg single dose, day 7): did not have an inhibitory effect
expression of total Smad2 ([1]; 20 mg/kg single dose, day 7): not affected
expression of total Smad3 ([1]; 20 mg/kg single dose, day 7): not affected
leukocyte infiltration (naphthol-AS-D-chloroacetate esterase staining) ([1]; 20 mg/kg single dose, day 7): reduced leukocyte infiltration to basal levels
morphological lesions and interstitial fibrosis (masson trichrome staining) ([1]; 20 mg/kg single dose, day 7): obvious attenuation
phosphorylation of ERK1/2 ([1]; 20 mg/kg single dose, day 7): abolished
phosphorylation of STAT3 ([1]; 20 mg/kg single dose, day 7): abolished
collagen 1 expression in kidney ([1]; 20 mg/kg single dose, day 21): partially suppressed
α-SMA expression in kidney ([1]; 20 mg/kg vs 10 mg/kg i.p. single dose, day 7): did not further reduce
effective doses of suramin ([1]; applicant's UUO and remnant kidney studies): 5 to 10 mg/kg
TGF-β1 induced phosphorylation of Smad2 [2]: abolished
TGF-β1 induced phosphorylation of Smad3 [2]: abolished
TGF-β1-induced fibronectin expression ([2]; in the presence of suramin): abolished
TGF-β1-induced α-SMA expression ([2]; in the presence of suramin): suppressed to the basal level
half life [3]: 21 days
half life ([3]; listed as suramin): at least 21 days
de novo expression of fibronectin in the remnant kidney [4, 10]: abolished
de novo expression of α-SMA in the remnant kidney [4, 10]: abolished
increased expression of type 1 collagen in the remnant kidney [4, 10]: abolished
24-hour proteinuria [4, 11]: significantly reduced
serum creatinine [4, 11]: significantly reduced
hypertension (mean blood pressure) ([4]; 10 mg/kg once per week for two weeks, day 28): not significantly affected
kidney histology (glomerular and tubulointerstitial damage) ([4]; 10 mg/kg once per week for two weeks, week 4): preserved kidney architecture and prevented the glomerular and tubulointerstitial damage
pathological changes in the kidney ([4]; suramin alone-treated (sham-operated) animals): no obvious pathological changes
cleavage of caspase-3 [5]: did not induce cleavage
cleavage of poly (ADP-ribose) polymerase (PARP) [5]: did not induce cleavage
